Data as given in PMC9090415, “Discovery of small molecule inhibitors of Plasmodium falciparum apicoplast DNA polymerase” (Journal of Enzyme Inhibition and Medicinal Chemistry, 2022).

Molecular target: P. falciparum apicoplast DNA polymerase (Pf-apPOL) (Plasmodium falciparum, UniProt Q8ILY1)
Experiment: Fluorescence-based high-throughput DNA polymerase assay (molecular beacon), primary screen and dose-response;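 as to % inhibition ApPOL 90': test concentration in µM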;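 as to % inhibition apPOL 180': test concentration in µM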
Assay type: biochemical
How it was run: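 Single-point screening used 10 µM compound with 20 nM polymerase, 20 nM hairpin substrate and 6 µM dNTPs for 90 min at 25 °C. Confirmatory titrations (2.5–80 µM) followed fluorescence at three times, and IC50 was derived from a fit including a cooperativity term n.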

[1] = DRC-1; concentration 80 (unit not given); 10'
[2] = primary screen value of the 186 hits; unit not given; 90 min, 10 µM
[3] = primary screen value; head prints only 'DNA Pol'; 90 min, 10 µM

P. falciparum apicoplast DNA polymerase (Pf-apPOL), sequence (Q8ILY1 entry or part of it): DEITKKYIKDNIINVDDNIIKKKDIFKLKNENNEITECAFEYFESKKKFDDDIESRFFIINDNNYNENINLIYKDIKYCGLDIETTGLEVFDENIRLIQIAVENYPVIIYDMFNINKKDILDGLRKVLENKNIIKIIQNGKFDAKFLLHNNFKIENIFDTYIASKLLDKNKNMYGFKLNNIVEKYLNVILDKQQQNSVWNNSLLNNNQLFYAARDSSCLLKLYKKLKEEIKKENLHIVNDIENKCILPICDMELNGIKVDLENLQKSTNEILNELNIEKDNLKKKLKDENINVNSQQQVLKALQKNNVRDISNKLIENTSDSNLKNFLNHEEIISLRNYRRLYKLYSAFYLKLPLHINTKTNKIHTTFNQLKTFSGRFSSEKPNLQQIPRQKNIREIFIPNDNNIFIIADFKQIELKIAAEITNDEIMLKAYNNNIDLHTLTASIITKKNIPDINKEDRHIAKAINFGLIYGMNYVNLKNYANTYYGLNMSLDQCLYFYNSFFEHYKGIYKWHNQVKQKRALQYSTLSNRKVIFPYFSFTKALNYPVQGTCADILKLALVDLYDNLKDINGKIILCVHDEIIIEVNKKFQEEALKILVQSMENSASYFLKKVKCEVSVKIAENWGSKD

SMILES: CCc1ccccc1NC(=O)c1ccc(-c2ncccc2NC(C)=O)cc1 [KU0203112]
- % inhibition Apo pol 10' (DRC-1; concentration 2.5; 10'): 16.2237%
- % inhibition Apol 90' (DRC-1; concentration 2.5; 90'): 2.255%
- % inhibition apPOL 180' (DRC-1; concentration 2.5; 180'): -4.969%
- % inhibition Apo pol 10' (DRC-1; concentration 5; 10'): 20.5956%
- % inhibition Apol 90' (DRC-1; concentration 5; 90'): 6.528%
- % inhibition apPOL 180' (DRC-1; concentration 5; 180'): -1.7806%
- % inhibition Apo pol 10' (DRC-1; concentration 10; 10'): 40.7013%
- % inhibition Apol 90' (DRC-1; concentration 10; 90'): 22.2992%
- % inhibition apPOL 180' (DRC-1; concentration 10; 180'): 9.63%
- % inhibition Apo pol 10' (DRC-1; concentration 20; 10'): 66.0159%
- % inhibition Apol 90' (DRC-1; concentration 20; 90'): 44.8534%
- % inhibition apPOL 180' (DRC-1; concentration 20; 180'): 25.9288%
- % inhibition Apo pol 10' (DRC-1; concentration 40; 10'): 83.2179%
- % inhibition Apol 90' (DRC-1; concentration 40; 90'): 72.954%
- % inhibition apPOL 180' (DRC-1; concentration 40; 180'): 58.4495%
- % inhibition Apo pol 10' [1]: 89.6121%
- % inhibition Apol 90' (DRC-1; concentration 80; 90'): 90.3611%
- % inhibition apPOL 180' (DRC-1; concentration 80; 180'): 89.009%
- % inhibition ApPOL 90' (DRC-2; 90'; concentration 40): 70%
- % inhibition apPOL 180' (DRC-2; 180'; concentration 40): 70%
- % inhibition Apo pol 5' (DRC-2; concentration 2.5; 5'): 0.547%
- % inhibition Apol 40' (DRC-2; concentration 2.5; 40'): 0.556%
- % inhibition ApPOL 90' (DRC-2; concentration 2.5; 90'): -1.65%
- % inhibition apPOL 180' (DRC-2; concentration 2.5; 180'): -5.44%
- % inhibition Apo pol 5' (DRC-2; concentration 5; 5'): 5.51%
- % inhibition Apol 40' (DRC-2; concentration 5; 40'): 7%
- % inhibition ApPOL 90' (DRC-2; concentration 5; 90'): 5.44%
- % inhibition apPOL 180' (DRC-2; concentration 5; 180'): -1.68%
- % inhibition Apo pol 5' (DRC-2; concentration 10; 5'): 27%
- % inhibition Apol 40' (DRC-2; concentration 10; 40'): 28%
- % inhibition ApPOL 90' (DRC-2; concentration 10; 90'): 25%
- % inhibition apPOL 180' (DRC-2; concentration 10; 180'): 14%
- % inhibition Apo pol 5' (DRC-2; concentration 20; 5'): 43%
- % inhibition Apol 40' (DRC-2; concentration 20; 40'): 54%
- % inhibition ApPOL 90' (DRC-2; concentration 20; 90'): 52%
- % inhibition apPOL 180' (DRC-2; concentration 20; 180'): 41%
- % inhibition Apo pol 5' (DRC-2; concentration 40; 5'): 50%
- % inhibition Apol 40' (DRC-2; concentration 40; 40'): 68%
- % inhibition ApPOL 90' (DRC-2; concentration 40; 90'): 70%
- % inhibition apPOL 180' (DRC-2; concentration 40; 180'): 70%
- % inhibition Apo pol 5' (DRC-2; concentration 80; 5'): 47%
- % inhibition Apol 40' (DRC-2; concentration 80; 40'): 69%
- % inhibition ApPOL 90' (DRC-2; concentration 80; 90'): 74%
- % inhibition apPOL 180' (DRC-2; concentration 80; 180'): 77%
- DNA Pol [2]: 26
- DNA Pol [3]: 26

SMILES: COc1cc(NC(=O)c2ccccc2)c(OC)cc1NC(=O)Cc1cccs1 [KU0032113]
- % inhibition Apo pol 10' (DRC-1; 10'; concentration 2.5): 6.129%
- % inhibition Apo pol 10' (DRC-1; 10'; concentration 5): 17.2801%
- % inhibition Apo pol 10' (DRC-1; 10'; concentration 10): 38.185%
- % inhibition Apo pol 10' (DRC-1; 10'; concentration 20): 61.3818%
- % inhibition Apo pol 10' (DRC-1; 10'; concentration 40): 79.6269%
- % inhibition Apo pol 10' (DRC-1; 10'; concentration 80): 80.874%
- % inhibition Apol 90' (DRC-1; 90'; concentration 2.5): 2.9%
- % inhibition Apol 90' (DRC-1; 90'; concentration 5): 9.442%
- % inhibition Apol 90' (DRC-1; 90'; concentration 10): 29.583%
- % inhibition Apol 90' (DRC-1; 90'; concentration 20): 53.4832%
- % inhibition Apol 90' (DRC-1; 90'; concentration 40): 79.1036%
- % inhibition Apol 90' (DRC-1; 90'; concentration 80): 83.2869%
- % inhibition apPOL 180' (DRC-1; 180'; concentration 2.5): 0.5437%
- % inhibition apPOL 180' (DRC-1; 180'; concentration 5): 4.503%
- % inhibition apPOL 180' (DRC-1; 180'; concentration 10): 19.4766%
- % inhibition apPOL 180' (DRC-1; 180'; concentration 20): 39.9313%
- % inhibition apPOL 180' (DRC-1; 180'; concentration 40): 73.4883%
- % inhibition apPOL 180' (DRC-1; 180'; concentration 80): 81.431%
- % inhibition Apo pol 5' (DRC-2, 5', concentration 2.5 (unit not given)): 25%
- % inhibition Apo pol 5' (DRC-2, 5', concentration 10 (unit not given)): 38%
- % inhibition Apo pol 5' (DRC-2, 5', concentration 20 (unit not given)): 38%
- % inhibition Apo pol 5' (DRC-2, 5', concentration 40 (unit not given)): 34%
- % inhibition Apol 40' (DRC-2, 40', concentration 2.5 (unit not given)): 34%
- % inhibition Apol 40' (DRC-2, 40', concentration 10 (unit not given)): 54%
- % inhibition Apol 40' (DRC-2, 40', concentration 40 (unit not given)): 61%
- % inhibition ApPOL 90' (DRC-2, 90', concentration 5 (unit not given)): 25%
- % inhibition ApPOL 90' (DRC-2, 90', concentration 10 (unit not given)): 54%
- % inhibition apPOL 180' (DRC-2, 180', concentration 20 (unit not given)): 61%
- % inhibition Apo pol 5' (DRC-2; 5'; concentration 2.5): 25%
- % inhibition Apo pol 5' (DRC-2; 5'; concentration 5): 21%
- % inhibition Apo pol 5' (DRC-2; 5'; concentration 10): 38%
- % inhibition Apo pol 5' (DRC-2; 5'; concentration 20): 38%
- % inhibition Apo pol 5' (DRC-2; 5'; concentration 40): 34%
- % inhibition Apo pol 5' (DRC-2; 5'; concentration 80): -20%
- % inhibition Apol 40' (DRC-2; 40'; concentration 2.5): 34%
- % inhibition Apol 40' (DRC-2; 40'; concentration 5): 28%
- % inhibition Apol 40' (DRC-2; 40'; concentration 10): 54%
- % inhibition Apol 40' (DRC-2; 40'; concentration 20): 62%
- % inhibition Apol 40' (DRC-2; 40'; concentration 40): 61%
- % inhibition Apol 40' (DRC-2; 40'; concentration 80): 35%
- % inhibition ApPOL 90' (DRC-2; 90'; concentration 2.5): 31%
- % inhibition ApPOL 90' (DRC-2; 90'; concentration 5): 25%
- % inhibition ApPOL 90' (DRC-2; 90'; concentration 10): 54%
- % inhibition ApPOL 90' (DRC-2; 90'; concentration 20): 64%
- % inhibition ApPOL 90' (DRC-2; 90'; concentration 40): 66%
- % inhibition ApPOL 90' (DRC-2; 90'; concentration 80): 47%
- % inhibition apPOL 180' (DRC-2; 180'; concentration 2.5): 22%
- % inhibition apPOL 180' (DRC-2; 180'; concentration 5): 13%
- % inhibition apPOL 180' (DRC-2; 180'; concentration 10): 44%
- % inhibition apPOL 180' (DRC-2; 180'; concentration 20): 61%
- % inhibition apPOL 180' (DRC-2; 180'; concentration 40): 67%
- % inhibition apPOL 180' (DRC-2; 180'; concentration 80): 59%
- DNA Pol (primary screen value of the 186 hits; unit not given): 42
- DNA Pol (primary screen value, head "DNA Pol", unit not given): 42

SMILES: O=C(Nc1cccc(C(=O)Nc2ccc(S(=O)(=O)O)c3cc(S(=O)(=O)O)cc(S(=O)(=O)O)c23)c1)Nc1cccc(C(=O)Nc2ccc(S(=O)(=O)O)c3cc(S(=O)(=O)O)cc(S(=O)(=O)O)c23)c1 [Molecule 39]
- IC50 (supplemental file 2, sheet IC50 nontoxic compounds; Pf-apPOL): 6.77 µM

SMILES: Cc1ccnc(NS(=O)(=O)c2ccc(-n3cccc3)cc2)n1 [KU0034899]
- % inhibition Apo pol 10' (DRC-1; concentration 2.5; 10'): 6.567%
- % inhibition Apol 90' (DRC-1; concentration 2.5; 90'): 1.285%
- % inhibition apPOL 180' (DRC-1; concentration 2.5; 180'): -4.513%
- % inhibition Apo pol 10' (DRC-1; concentration 5; 10'): 25.8281%
- % inhibition Apol 90' (DRC-1; concentration 5; 90'): 11.3898%
- % inhibition apPOL 180' (DRC-1; concentration 5; 180'): 1.685%
- % inhibition Apo pol 10' (DRC-1; concentration 10; 10'): 43.5691%
- % inhibition Apol 90' (DRC-1; concentration 10; 90'): 23.2373%
- % inhibition apPOL 180' (DRC-1; concentration 10; 180'): 9.9045%
- % inhibition Apo pol 10' (DRC-1; concentration 20; 10'): 72.9985%
- % inhibition Apol 90' (DRC-1; concentration 20; 90'): 50.5873%
- % inhibition apPOL 180' (DRC-1; concentration 20; 180'): 29.9217%
- % inhibition Apo pol 10' (DRC-1; concentration 40; 10'): 90.805%
- % inhibition Apol 90' (DRC-1; concentration 40; 90'): 80.4805%
- % inhibition apPOL 180' (DRC-1; concentration 40; 180'): 67.6388%
- % inhibition Apo pol 10' [1]: 93.2113%
- % inhibition Apol 90' (DRC-1; concentration 80; 90'): 92.1996%
- % inhibition apPOL 180' (DRC-1; concentration 80; 180'): 89.3134%
- % inhibition Apol 40' (DRC-2; 40'; concentration 80): 59%
- % inhibition ApPOL 90' (DRC-2; 90'; concentration 20): 59%
- % inhibition Apo pol 5' (DRC-2; concentration 2.5; 5'): 26%
- % inhibition Apol 40' (DRC-2; concentration 2.5; 40'): 31%
- % inhibition ApPOL 90' (DRC-2; concentration 2.5; 90'): 29%
- % inhibition apPOL 180' (DRC-2; concentration 2.5; 180'): 19%
- % inhibition Apo pol 5' (DRC-2; concentration 5; 5'): 23%
- % inhibition Apol 40' (DRC-2; concentration 5; 40'): 20%
- % inhibition ApPOL 90' (DRC-2; concentration 5; 90'): 14%
- % inhibition apPOL 180' (DRC-2; concentration 5; 180'): 0.78%
- % inhibition Apo pol 5' (DRC-2; concentration 10; 5'): 41%
- % inhibition Apol 40' (DRC-2; concentration 10; 40'): 42%
- % inhibition ApPOL 90' (DRC-2; concentration 10; 90'): 37%
- % inhibition apPOL 180' (DRC-2; concentration 10; 180'): 21%
- % inhibition Apo pol 5' (DRC-2; concentration 20; 5'): 49%
- % inhibition Apol 40' (DRC-2; concentration 20; 40'): 62%
- % inhibition ApPOL 90' (DRC-2; concentration 20; 90'): 59%
- % inhibition apPOL 180' (DRC-2; concentration 20; 180'): 48%
- % inhibition Apo pol 5' (DRC-2; concentration 40; 5'): 52%
- % inhibition Apol 40' (DRC-2; concentration 40; 40'): 73%
- % inhibition ApPOL 90' (DRC-2; concentration 40; 90'): 75%
- % inhibition apPOL 180' (DRC-2; concentration 40; 180'): 74%
- % inhibition Apo pol 5' (DRC-2; concentration 80; 5'): 17%
- % inhibition Apol 40' (DRC-2; concentration 80; 40'): 59%
- % inhibition ApPOL 90' (DRC-2; concentration 80; 90'): 67%
- % inhibition apPOL 180' (DRC-2; concentration 80; 180'): 76%
- DNA Pol [2]: 40
- DNA Pol [3]: 40
